Earlier results, collected in patent US20050142185A1, “Softgel formulations of bisphosphonates bone resorption inhibitors” (priority 2003, published 2005).

How the values were obtained:
[1] = taken either concurrently with or 2 hours after breakfast
[2] = marketed tablet not taken with enough water, or patient not upright for about one-half hour after taking

impairment of availability [1]: > 85%
Structure (SMILES): NCCCC(O)(P(=O)(O)O)P(=O)(O)O [alendronate, 4-amino-1-hydroxybutylidene-1,1-biphosphonic acid]
side effects reported [2]: esophageal irritation and erosion
